In patent US20230382904A1, “SUBSTITUTED 4-([1,2,4]TRIAZOLO[1,5-a]PYRIDIN-6-YL)THIOPHENE-2-CARBOXAMIDE DERIVATIVES AND USE THEREOF” (The Johns Hopkins University, priority 2020, published 2023):

How the values were obtained:
[1] = molecular target: DLK (Homo sapiens (Human), UniProt Q12852); experiment: DLK biochemical assay (TR-FRET, MKK7 phosphorylation)
Method in brief: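 Catalytic-domain DLK (10 nM) phosphorylates His-MKK7 (15 nM) with 60 μM ATP, 90 min at RT, in pH 7.5 HEPES buffer. Phospho-T275/S277 read by TR-FRET (Eu anti-phospho donor, XL665 anti-His acceptor) after 16 h detection, at 37° C. in 1536 or 4° C. in 384 format.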

[2] = molecular target: LZK (Homo sapiens (Human), UniProt O43283); experiment: LZK biochemical assay (TR-FRET, MKK7 phosphorylation)
Sequence of LZK (O43283 168-409): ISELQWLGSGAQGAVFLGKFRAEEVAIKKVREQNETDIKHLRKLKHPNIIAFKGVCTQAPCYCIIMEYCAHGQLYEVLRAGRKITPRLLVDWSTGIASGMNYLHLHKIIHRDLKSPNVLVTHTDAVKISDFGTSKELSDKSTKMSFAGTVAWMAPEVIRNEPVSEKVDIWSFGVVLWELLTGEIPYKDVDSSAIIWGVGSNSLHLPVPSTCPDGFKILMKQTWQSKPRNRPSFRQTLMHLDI
Method in brief: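 Catalytic-domain LZK (10 nM) phosphorylated His-MKK7 (15 nM) with 15 μM ATP for 90 min at RT. Phospho-T275/S277 detected by Eu-anti-phospho-MKK7/XL665-anti-His TR-FRET after 16 h at 32° C, using the 665/Eu ratio. Buffer: 50 mM Hepes pH 7.5, 10 mM MgCl2, 1 mM DTT.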

Sequence of DLK (Q12852 1-520): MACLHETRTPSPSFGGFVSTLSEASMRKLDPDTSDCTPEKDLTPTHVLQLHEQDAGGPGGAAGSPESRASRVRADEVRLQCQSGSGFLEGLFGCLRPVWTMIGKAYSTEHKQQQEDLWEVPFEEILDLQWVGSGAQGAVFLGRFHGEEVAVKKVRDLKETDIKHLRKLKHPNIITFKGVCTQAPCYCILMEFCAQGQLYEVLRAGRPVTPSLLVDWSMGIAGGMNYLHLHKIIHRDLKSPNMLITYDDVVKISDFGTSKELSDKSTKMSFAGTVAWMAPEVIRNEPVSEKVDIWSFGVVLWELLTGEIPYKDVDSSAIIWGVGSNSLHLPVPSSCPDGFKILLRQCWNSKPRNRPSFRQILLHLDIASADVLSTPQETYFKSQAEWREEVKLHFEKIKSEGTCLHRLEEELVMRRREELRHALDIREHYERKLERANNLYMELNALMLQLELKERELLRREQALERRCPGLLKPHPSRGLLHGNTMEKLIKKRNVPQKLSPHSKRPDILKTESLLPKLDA

| Structure (SMILES) | IC50 [1] [nM] | IC50 [2] [nM] |
| --- | --- | --- |
| Cn1ccnc1CNC(=O)c1cc(-c2ccc3nc(N)nn3c2)cs1 [Compound 241] | 1300 | 21000 |
| CNS(=O)(=O)c1cc(-c2csc(C(=O)N[C@@H](C)c3ccc(F)cc3)c2)cn2nc(N)nc12 [Compound 386] | 3400 | > 30000 |
| CC(C)NC(=O)c1cc(-c2ccc3nc(N)nn3c2)cs1 [Compound 173] | 2150 | 19000 |
| C[C@H](NC(=O)c1cc(-c2cc(C(=O)NC3CCNC3)c3nc(N)nn3c2)cs1)c1ccc(F)cc1 (mixture of isomers) [Compound 33] | 12 | 360 |
| CC[C@H](NC(=O)c1cc(-c2cc(C(=O)N[C@@H](C)CC)c3nc(N)nn3c2)cs1)c1ccccc1 [Compound 89] | 3.7 | 51 |
| COC1CCC(NC(=O)c2cc(-c3ccc4nc(N)nn4c3)cs2)C1 (centres unmarked) [Compound 272] | 1500 | > 30000 |
| Nc1nc2c(C(=O)N[C@H]3CCOC3)cc(-c3csc(C(=O)NCc4ccccc4)c3)cn2n1 [Compound 103] | 25 | 160 |
| Nc1nc2ccc(-c3csc(C(=O)NC4(c5ccc(F)cc5)COC4)c3)cn2n1 [Compound 314] | 530 | 7000 |
| CC(C)NC(=O)c1cc(-c2csc(C(=O)NC3CCCc4cc(F)ccc43)c2)cn2nc(N)nc12 (centres unmarked) [Compound 119] | 24 | 505 |
| CC(C)(NC(=O)c1cc(-c2ccc3nc(N)nn3c2)cs1)c1ccc(F)cc1 [Compound 308] | 300 | 3000 |
| Nc1nc2c(C(=O)NC3CNC(=O)C3)cc(-c3csc(C(=O)NCc4ccccc4)c3)cn2n1 (centres unmarked) [Compound 38] | 17 | 130 |
| CC(NC(=O)c1cc(-c2ccc3nc(N)nn3c2)cs1)c1nc2c(s1)CCCC2 (centres unmarked) [Compound 332] | 150 | 3100 |
| Nc1nc2ccc(-c3csc(C(=O)Nc4ccccc4Cl)c3)cn2n1 [Compound 224] | 1660 | > 30000 |
